Experimental data published in article PMC8459971, “Evaluation of the hepatotoxicity of the novel GPR40 (FFAR1) agonist CPL207280 in the rat and monkey” (PLoS ONE, 2021).
Where “and” joins values, the source holds several entries; their conditions need not be identical. Equal values may be shown once. Read-outs that look alike come from different tables or passages of the source.

Key:
[1] = Single-dose pharmacokinetics in rats (p.o. and i.v.); format: in vivo, rat; parameters: plasma conc: unit not given here; conditions: for plasma conc: single animals; for AUC: read-out: AUC
[2] = molecular target: T1, OATP1B3 (Homo sapiens, UniProt Q9NPD5); test: Uptake transporter inhibition assay, OATP1B3
T1 sequence (Q9NPD5 1-702): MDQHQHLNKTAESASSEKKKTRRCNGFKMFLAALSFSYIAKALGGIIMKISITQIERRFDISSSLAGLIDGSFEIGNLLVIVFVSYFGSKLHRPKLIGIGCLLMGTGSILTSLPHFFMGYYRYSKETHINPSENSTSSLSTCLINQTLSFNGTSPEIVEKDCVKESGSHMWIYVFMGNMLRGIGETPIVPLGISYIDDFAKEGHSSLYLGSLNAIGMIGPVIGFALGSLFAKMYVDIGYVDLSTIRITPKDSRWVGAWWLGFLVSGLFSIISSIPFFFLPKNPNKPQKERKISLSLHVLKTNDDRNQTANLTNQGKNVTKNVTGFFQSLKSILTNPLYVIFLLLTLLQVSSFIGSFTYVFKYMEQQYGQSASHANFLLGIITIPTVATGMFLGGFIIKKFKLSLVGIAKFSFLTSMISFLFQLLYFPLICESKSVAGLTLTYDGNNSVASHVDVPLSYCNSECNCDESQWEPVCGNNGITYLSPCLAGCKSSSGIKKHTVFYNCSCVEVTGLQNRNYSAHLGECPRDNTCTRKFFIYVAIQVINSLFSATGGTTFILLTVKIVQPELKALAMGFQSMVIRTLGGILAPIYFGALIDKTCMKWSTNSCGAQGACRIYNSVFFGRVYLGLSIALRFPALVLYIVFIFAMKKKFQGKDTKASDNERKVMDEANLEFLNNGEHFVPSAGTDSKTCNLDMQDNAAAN
Experimental: For the uptake transporter inhibition assay, cells were washed twice with 100 μL of the appropriate buffer (HK, pH 7.4) for OATP1B1, followed by HBSS (pH 7.4) for (NTCP, OAT1, OAT2v1, OATP1A2, and OATP1B3). Uptake experiments were carried out at 37 ± 1°C in 50 μL of the respective buffer containing the probe substrate and the compound or solvent. […] After the experiment, cells were washed twice with 100 μL of cold appropriate buffer and lysed with 50 μL of 0.1 M NaOH. Radiolabeled probe substrate transport was determined by measuring an aliquot (35 μL) from each well for liquid scintillation counting.

[3] = molecular target: T2, MRP4 (Homo sapiens, UniProt O15439); test: Vesicular transport inhibition assay, MRP4; conditions: for Accumulation (counts per minute; CPM) with AMP / Accumulation (counts per minute; CPM) with ATP: MRP4;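 also: membrane vesicles with MRP4 incubated with compound and probe substrate plus 4 mM ATP, or AMP as passive-diffusion background, vesicular substrate uptake read by liquid scintillation counting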;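 as to Accumulation (counts per minute; CPM) with AMP: ATP 4 mM vs AMP background separates transporter uptake from diffusion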;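 as to Accumulation (counts per minute; CPM) with ATP: ATP 4 mM vs AMP background separates transporter uptake from diffusion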
T2 sequence (O15439 1-1325): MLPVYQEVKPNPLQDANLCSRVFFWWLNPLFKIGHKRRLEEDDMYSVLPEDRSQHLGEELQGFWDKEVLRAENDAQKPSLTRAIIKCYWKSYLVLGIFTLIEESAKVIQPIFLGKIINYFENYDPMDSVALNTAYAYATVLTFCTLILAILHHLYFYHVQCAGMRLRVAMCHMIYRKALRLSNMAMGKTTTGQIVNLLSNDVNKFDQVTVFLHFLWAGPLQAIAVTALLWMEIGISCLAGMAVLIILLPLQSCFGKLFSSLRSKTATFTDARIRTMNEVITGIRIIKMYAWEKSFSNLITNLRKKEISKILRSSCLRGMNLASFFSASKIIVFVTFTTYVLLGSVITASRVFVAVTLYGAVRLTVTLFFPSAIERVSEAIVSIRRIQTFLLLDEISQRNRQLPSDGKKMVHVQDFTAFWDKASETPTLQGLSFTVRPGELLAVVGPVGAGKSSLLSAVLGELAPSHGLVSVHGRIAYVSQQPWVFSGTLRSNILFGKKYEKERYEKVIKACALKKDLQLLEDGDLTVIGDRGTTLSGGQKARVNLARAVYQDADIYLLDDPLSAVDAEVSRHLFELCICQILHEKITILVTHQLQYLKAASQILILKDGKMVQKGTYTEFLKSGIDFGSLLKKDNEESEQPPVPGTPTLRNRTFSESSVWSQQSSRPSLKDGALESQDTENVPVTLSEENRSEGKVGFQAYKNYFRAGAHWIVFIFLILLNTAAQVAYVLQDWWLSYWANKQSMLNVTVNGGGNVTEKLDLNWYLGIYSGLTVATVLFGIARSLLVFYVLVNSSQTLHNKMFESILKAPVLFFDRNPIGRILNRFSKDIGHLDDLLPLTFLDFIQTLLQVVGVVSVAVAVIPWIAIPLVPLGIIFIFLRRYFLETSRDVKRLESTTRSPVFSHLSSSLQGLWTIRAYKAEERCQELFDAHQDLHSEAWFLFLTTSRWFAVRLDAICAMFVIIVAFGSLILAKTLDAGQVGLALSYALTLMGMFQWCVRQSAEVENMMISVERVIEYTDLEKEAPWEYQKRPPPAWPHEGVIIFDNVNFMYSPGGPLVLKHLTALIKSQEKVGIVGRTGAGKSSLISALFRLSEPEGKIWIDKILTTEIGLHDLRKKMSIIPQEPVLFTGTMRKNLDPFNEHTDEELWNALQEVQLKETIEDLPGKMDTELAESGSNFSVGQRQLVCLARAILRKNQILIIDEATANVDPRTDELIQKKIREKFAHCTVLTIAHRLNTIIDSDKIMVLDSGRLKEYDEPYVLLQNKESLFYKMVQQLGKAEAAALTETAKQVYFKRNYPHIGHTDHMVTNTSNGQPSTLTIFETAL
Experimental: (§1) In the vesicular transport inhibition assay (for BSEP, MRP) compounds were incubated with membrane vesicle preparations and the probe substrate. Incubations were carried out in the presence of 4 mM ATP or AMP to distinguish between transporter-mediated uptake and passive diffusion into the vesicles. For MRP2 and MRP3, reactions were carried out in the presence of 2 mM glutathione. Compounds were added to the reaction mixture in 0.75 μL of solvent (1% of the final incubation volume). […] Reactions were initiated by the addition of 25 μL of 12 mM MgATP (or 12 mM AMP in assay buffer as a background control) and preincubated separately. Reactions were quenched by the addition of 200 μL of ice-cold washing buffer and immediate filtration via glass fiber filters mounted on a 96-well plate (filter plate). The filters were washed (5 × 200 μL of ice-cold washing buffer), dried, and the amount of substrate inside the filtered vesicles was determined by liquid scintillation counting.

[4] = molecular target: MRP2 (Homo sapiens, UniProt Q92887); test: Vesicular transport inhibition assay, MRP2; conditions: for Accumulation (counts per minute; CPM) with AMP / Accumulation (counts per minute; CPM) with ATP: MRP2;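 also: membrane vesicles with probe substrate plus 2 mM glutathione, incubated with 4 mM ATP or AMP (AMP as background control), vesicle-retained substrate measured by liquid scintillation counting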;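 as to Accumulation (counts per minute; CPM) with AMP: ATP 4 mM vs AMP background separates transporter uptake from diffusion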;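 as to Accumulation (counts per minute; CPM) with ATP: ATP 4 mM vs AMP background separates transporter uptake from diffusion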
MRP2, sequence (Q92887 whole entry, the tested form may be a part): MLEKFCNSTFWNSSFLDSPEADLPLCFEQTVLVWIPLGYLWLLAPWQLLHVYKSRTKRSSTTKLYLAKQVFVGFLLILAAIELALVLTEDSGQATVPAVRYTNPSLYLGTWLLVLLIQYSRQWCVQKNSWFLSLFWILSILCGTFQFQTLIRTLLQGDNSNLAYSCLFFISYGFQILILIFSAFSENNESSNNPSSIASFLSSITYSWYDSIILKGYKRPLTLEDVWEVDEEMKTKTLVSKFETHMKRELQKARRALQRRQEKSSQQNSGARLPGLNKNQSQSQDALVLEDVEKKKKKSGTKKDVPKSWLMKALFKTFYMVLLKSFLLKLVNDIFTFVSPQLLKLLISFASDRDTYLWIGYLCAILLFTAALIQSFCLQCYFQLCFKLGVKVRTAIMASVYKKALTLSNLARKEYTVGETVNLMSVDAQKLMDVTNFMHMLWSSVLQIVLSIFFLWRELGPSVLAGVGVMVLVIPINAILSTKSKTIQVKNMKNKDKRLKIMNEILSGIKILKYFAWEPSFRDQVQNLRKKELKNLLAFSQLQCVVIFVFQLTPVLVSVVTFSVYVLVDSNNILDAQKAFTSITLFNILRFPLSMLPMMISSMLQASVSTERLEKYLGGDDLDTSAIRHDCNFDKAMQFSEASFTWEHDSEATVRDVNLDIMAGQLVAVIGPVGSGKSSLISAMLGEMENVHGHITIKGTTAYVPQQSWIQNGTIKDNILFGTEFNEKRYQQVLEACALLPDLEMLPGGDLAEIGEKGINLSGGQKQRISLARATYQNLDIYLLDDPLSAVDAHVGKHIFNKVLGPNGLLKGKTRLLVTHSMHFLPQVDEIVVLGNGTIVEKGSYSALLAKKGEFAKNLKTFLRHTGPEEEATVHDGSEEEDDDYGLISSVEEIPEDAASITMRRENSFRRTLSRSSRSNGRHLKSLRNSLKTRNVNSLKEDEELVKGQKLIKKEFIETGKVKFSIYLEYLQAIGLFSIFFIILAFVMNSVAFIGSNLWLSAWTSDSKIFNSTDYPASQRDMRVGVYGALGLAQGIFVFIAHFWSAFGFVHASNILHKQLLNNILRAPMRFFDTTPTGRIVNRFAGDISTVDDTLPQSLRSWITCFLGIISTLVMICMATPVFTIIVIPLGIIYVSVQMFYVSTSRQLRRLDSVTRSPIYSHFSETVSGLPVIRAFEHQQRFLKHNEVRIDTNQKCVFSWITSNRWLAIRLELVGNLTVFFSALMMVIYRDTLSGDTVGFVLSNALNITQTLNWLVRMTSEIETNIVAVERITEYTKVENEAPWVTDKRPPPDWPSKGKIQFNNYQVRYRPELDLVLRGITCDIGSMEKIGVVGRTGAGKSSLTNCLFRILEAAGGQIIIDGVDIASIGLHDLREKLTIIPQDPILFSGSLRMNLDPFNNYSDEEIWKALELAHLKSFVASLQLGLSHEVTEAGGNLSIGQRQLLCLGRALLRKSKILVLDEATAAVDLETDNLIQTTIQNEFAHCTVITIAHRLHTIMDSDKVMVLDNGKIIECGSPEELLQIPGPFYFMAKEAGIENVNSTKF
Experimental: as §1

[5] = rat, plasma, iv, 3 mg/kg, rats, 3 mg/kg i.v.
[6] = rat, plasma, po, 3 mg/kg, rats, 3 mg/kg p.o.

Cc1cc(OCCCS(C)(=O)=O)cc(C)c1-c1cccc(COc2ccc3c(c2)OC[C@H]3CC(=O)O)c1 [TAK-875, fasiglifam, reference compound]
plasma conc ([1]; rat, 3 mg/kg i.v., 0.08 h, 3 mg/kg): 14090 and 15902 and 15227 and 5072
plasma conc ([1]; rat, 3 mg/kg i.v., 0.5 h, 3 mg/kg): 14558 and 12270 and 9258 and 3810
plasma conc ([1]; rat, 3 mg/kg i.v., 1 h, 3 mg/kg): 8089 and 7692 and 11373 and 4600
plasma conc ([1]; rat, 3 mg/kg i.v., 2 h, 3 mg/kg): 5223 and 7517 and 9423
plasma conc ([1]; rat, 3 mg/kg i.v., 4 h, 3 mg/kg): 3618 and 4301 and 3765
plasma conc ([1]; rat, 3 mg/kg i.v., 7 h, 3 mg/kg): 1974 and 2103 and 1928 and 4512
plasma conc ([1]; rat, 3 mg/kg i.v., 12 h, 3 mg/kg): 1056 and 769 and 1435
plasma conc ([1]; rat, 3 mg/kg p.o., 0.5 h, 3 mg/kg): 1176 and 692 and 854 and 1110
plasma conc ([1]; rat, 3 mg/kg p.o., 1 h, 3 mg/kg): 1699 and 1467 and 1460 and 1557
plasma conc ([1]; rat, 3 mg/kg p.o., 2 h, 3 mg/kg): 1890 and 1694 and 1808 and 1814
plasma conc ([1]; rat, 3 mg/kg p.o., 4 h, 3 mg/kg): 1443 and 1502 and 1610 and 1643
plasma conc ([1]; rat, 3 mg/kg p.o., 8 h, 3 mg/kg): 681 and 636 and 614 and 960 and 463
plasma conc ([1]; rat, 3 mg/kg p.o., 24 h): 0
Tmax [1, 5]: 0.083 h
Cmax ([1]; rat, plasma, iv, 3 mg/kg, rats, 3 mg/kg i.v., n = 5, read-out: Cmax): 15100 ± 916 ng/mL
AUC [1, 5]: 45200 ± 4680 ng·h/mL
bioavailability ([1]; rat, plasma, oral, rats, 3 mg/kg p.o. vs i.v., read-out: F (bioavailability)): 38%
Tmax [1, 6]: 2 h
AUC [1, 6]: 15800 ± 1510 ng·h/mL
Vd ([1]; rat, plasma, rats, 3 mg/kg): 0.25 ± 0.01 L/kg
k el ([1]; rat, plasma, rats, 3 mg/kg): 6.67e-05 s⁻¹
greater distribution volume (Vd) than CPL207280 ([1]; rats, 3 mg/kg): 20%
IC50 [2]: 3.44 µM
IC50 [3]: 6.9 µM
Accumulation (counts per minute; CPM) with AMP ([3]; conc 0.07 µM): 1270 CPM and 1266 CPM
Accumulation (counts per minute; CPM) with ATP ([3]; conc 0.07 µM): 5265 CPM and 5304 CPM
Accumulation (counts per minute; CPM) with AMP ([3]; conc 0.21 µM): 1193 CPM and 1241 CPM
Accumulation (counts per minute; CPM) with ATP ([3]; conc 0.21 µM): 5360 CPM and 5232 CPM
Accumulation (counts per minute; CPM) with AMP ([3]; conc 0.62 µM): 1249 CPM and 1265 CPM
Accumulation (counts per minute; CPM) with ATP ([3]; conc 0.62 µM): 5330 CPM and 5164 CPM
Accumulation (counts per minute; CPM) with AMP ([3]; conc 16.67 µM): 1183 CPM and 1161 CPM
Accumulation (counts per minute; CPM) with ATP ([3]; conc 16.67 µM): 1970 CPM and 2307 CPM
Accumulation (counts per minute; CPM) with AMP ([3]; conc 50.00 µM): 1007 CPM and 1016 CPM
Accumulation (counts per minute; CPM) with ATP ([3]; conc 50.00 µM): 1338 CPM and 1487 CPM
IC50 [4]: 48.1 µM
Accumulation (counts per minute; CPM) with AMP ([4]; conc 0.07 µM): 234 CPM and 221 CPM
Accumulation (counts per minute; CPM) with ATP ([4]; conc 0.07 µM): 3160 CPM and 3355 CPM
Accumulation (counts per minute; CPM) with AMP ([4]; conc 0.21 µM): 218 CPM and 217 CPM
Accumulation (counts per minute; CPM) with ATP ([4]; conc 0.21 µM): 3318 CPM and 3579 CPM
Accumulation (counts per minute; CPM) with AMP ([4]; conc 0.62 µM): 249 CPM and 186 CPM
Accumulation (counts per minute; CPM) with ATP ([4]; conc 0.62 µM): 3453 CPM and 3166 CPM
Accumulation (counts per minute; CPM) with AMP ([4]; conc 16.67 µM): 211 CPM and 200 CPM
Accumulation (counts per minute; CPM) with ATP ([4]; conc 16.67 µM): 2989 CPM and 3430 CPM
Accumulation (counts per minute; CPM) with AMP ([4]; conc 50.00 µM): 220 CPM and 191 CPM
Accumulation (counts per minute; CPM) with ATP ([4]; conc 50.00 µM): 1700 CPM and 1670 CPM
